Reference: US3992533A, “O-ethyl-S-N-propyl-O-(2-chloro-4-bromophenyl)-thiophosphate” (priority 1971, dated 1976)
Read-outs that look alike come from different tables or passages of the source.

Key:
[1] = tested on: third instar larvae of Heliothis virescens; test: Insecticidal test on sprayed potted cotton and tobacco plants, initial and residual effect; format: in vivo
Experimental: Potted cotton and tobacco plants respectively were sprayed with 125 ppm of active ingredient in the form of an aqueous emulsion. After the coating had dried, the treated plants were infested with third instar larvae of Heliothis virescens. The tests were running under greenhouse conditions at 24° C and 60% relative humitidy. Assessments to evaluate the initial effect of the immediate acitivity of the active ingredient were carried out 4, 24 and 48 hours after the infestation of the plants with the pests. Assessments to evaluate the […] of the activity over a prolonged period of the active ingredient were carried out as follows: the coated test plants were infested with the test individuals 2 and 8 days respectively after the application of the active ingredient. Each test was checked after 4, 24 and 48 hours. Test compounds

[2] = Acute oral toxicity in rat; conditions: in vivo, per os
[3] = tested on: Anthrenus vorax; test: Talcum dust on filter paper, dosage for 100% control within 24 hours; format: in vivo; conditions: 5% talcum dust on filter paper
Experimental: (§1) A dust on a base of talcum and containing 5% active ingredient was applied to filter paper in concentrations of 100, 50, 25, 12.5 6.2 and 3.1 mg of active substance per m^ 2. Onto each of the treated substrates were applied 5 Necrobia rufipes, Rhyzoperta dominica, Anthrenus vorax and Tribolium confusum individuals respectively. Evaluation took place 24 hours later. Test compounds were same as set forth in Example 2.

[4] = tested on: Necrobia rufipes; test: as above; format: in vivo; conditions: 5% talcum dust on filter paper
Experimental: as §1

[5] = tested on: Rhyzoperta dominica; test: as above; format: in vivo; conditions: 5% talcum dust on filter paper
Experimental: as §1

[6] = tested on: Tribolium confusum; test: as above; format: in vivo; conditions: 5% talcum dust on filter paper
Experimental: as §1

[7] = tested on: Tetranychus urticae; test: Acaricidal action on Phaseolus vulgaris; format: in vivo; conditions: larvae, adults and eggs evaluated after 7 days; greenhouse 25° C
Experimental: The number of living and dead larvae, adults and eggs were evaluated after 7 days under a stereoscopic microscope and the result expressed in percentages. During the "interim", the treated plants were kept in greenhouse compartments at 25° C.

[8] = tested on: cotton pests; test: Comparison of activity with closest known compounds; format: in vivo; conditions: on at least the same toxicity level; especially initial effect towards cotton pests
[9] = 125 ppm aqueous emulsion, initial effect, assessment 4 h after infestation, 24° C, 60% relative humidity, read-out: % mortality, initial, 4 hours
[10] = 125 ppm, infested 2 days after application, assessment at 24 h, read-out: % mortality, residual 2d, 24 hours
[11] = 125 ppm, infested 2 days after application, assessment at 48 h, read-out: % mortality, residual 2d, 48 hours
[12] = 125 ppm, infested 8 days after application, assessment at 4 h, read-out: % mortality, residual 8d, 4 hours
[13] = 125 ppm, infested 8 days after application, assessment at 24 h, read-out: % mortality, residual 8d, 24 hours
[14] = 125 ppm, infested 8 days after application, assessment at 48 h, read-out: % mortality, residual 8d, 48 hours
[15] = 125 ppm, initial effect, assessment 24 h after infestation, read-out: % mortality, initial, 24 hours
[16] = 125 ppm, initial effect, assessment 48 h after infestation, read-out: % mortality, initial, 48 hours
[17] = 4 h, read-out: % mortality, residual 2d, 4 hours

| SMILES | mortality at 125 ppm [1, 9] | mortality at 125 ppm [1, 10] | mortality at 125 ppm [1, 11] | mortality at 125 ppm [1, 12] | mortality at 125 ppm [1, 13] | mortality at 125 ppm [1, 14] | mortality at 125 ppm [1, 15] | mortality at 125 ppm [1, 16] | mortality at 125 ppm [1, 17] | LD50 [2] | Dosage needed which provides a 100% control within 24 hours [3] | Dosage needed which provides a 100% control within 24 hours [4] | Dosage needed which provides a 100% control within 24 hours [5] | Dosage needed which provides a 100% control within 24 hours [6] | mortality at 125 ppm ([1]; 125 ppm, infested 2 days after application, assessment at 4 h, read-out: % mortality, residual 2d, 4 hours) | acaricidal activity [7] | activities versus the closest known compounds [8] |
| --- | --- | --- | --- | --- | --- | --- | --- | --- | --- | --- | --- | --- | --- | --- | --- | --- | --- |
| CCCSP(=O)(OCC)Oc1ccc(Cl)cc1Cl (centres unmarked) [II, O-ethyl-S-n-propyl-O-(2,4-dichlorophenyl)-thiophosphoric acid ester] | 80% | 100% | 100% | 30% | 50% | 100% | 90% | 100% | 50% | 400 mg/kg | 50 mg a.i./m^2 | 6.2 mg a.i./m^2 | 50 mg a.i./m^2 | 100 mg a.i./m^2 |  |  |  |
| CCCSP(=O)(OCC)Oc1ccc(Br)cc1Br (centres unmarked) [III, O-ethyl-S-n-propyl-O-(2,4-dibromophenyl)-thiophosphoric acid ester] | 75% | 100% | 100% | 0% | 5% | 55% | 100% | 100% | 30% | 300 mg/kg | 100 mg a.i./m^2 | 6.2 mg a.i./m^2 | 100 mg a.i./m^2 | > 100 mg a.i./m^2 |  |  |  |
| CCCSP(=O)(OCC)Oc1ccc(Br)cc1Cl (centres unmarked) [I, O-ethyl-S-N-propyl-O-(2-chloro-4-bromophenyl)-thiophosphate] | 100% | 100% | 100% | 50% | 100% | 100% | 100% | 100% |  | 400 to 900 mg/kg | 25 mg a.i./m^2 | 3.1 mg a.i./m^2 | 25 mg a.i./m^2 | 50 mg a.i./m^2 | 100% | good activity | surprisingly superior activities |
